# Assay results reported in ChEMBL document CHEMBL3745630, “Cloning, characterization and anion inhibition studies of a γ-carbonic anhydrase from the Antarctic bacterium Colwellia psychrerythraea” (Bioorg Med Chem, 2016).
# Assay: Inhibition of Colwellia psychrerythraea gamma carbonic anhydrase expressed in Escherichia coli incubated for 15 mins prior to testing by stopped flow CO2 hydration method
row,SMILES,Ki [mM]
1,O=[N+]([O-])[O-].[Na+] [SODIUM NITRATE],21.7
2,CCN(CC)C(=S)S [DITIOCARB SODIUM],0.58
3,[F-].[Na+] [SODIUM FLUORIDE],> 100
4,[O-][Cl+3]([O-])([O-])O [SODIUM PERCHLORATE],> 100
5,O=[As](O)(O)c1ccccc1 [PHENYLARSONIC ACID],0.038
6,O=S(=O)([O-])[O-].[Na+].[Na+] [SODIUM SULFATE ANHYDROUS],9.4
7,[I-].[Na+] [SODIUM IODIDE],8.7
8,F[P-](F)(F)(F)(F)F.[Na+],5.6
9,N=C=[Se] [SODIUM ISOSELENOCYANATE],6
10,O=C([O-])O.[Na+] [SODIUM BICARBONATE],1.7
11,NS(=O)(=O)O [SULFAMATE],0.037
12,N=C=S [SODIUM ISOTHIOCYANATE],3.3
13,S [SODIUM HYDROSULFIDE],4.8
14,O=C([O-])[O-].[Na+].[Na+] [SODIUM CARBONATE],1.4
15,[Br-].[Na+] [SODIUM BROMIDE],> 100
16,F[B-](F)(F)F.[Na+] [SODIUM TETRAFLUOROBORATE],> 100
17,O=BOB(O)OB(O)OB=O [SODIUM TETRABORATE],4.7
18,O=[Te](=O)(O)O [SODIUM TELLURATE],5.1
19,N#CO [SODIUM CYANATE],2.5
20,O=NO [SODIUM NITRITE],8.8
21,OB(O)c1ccccc1 [PHENYLBORONIC ACID],0.026
22,S=C(S)S [SODIUM CARBONOTRITHIOATE],3.8
23,NS(N)(=O)=O [SULFAMIDE],0.008
24,O=S([O-])O.[Na+] [SODIUM BISULFITE],37.5
25,[N-]=[N+]=[N-] [SODIUM AZIDE],> 100
26,O=[Se](=O)(O)O [SODIUM SELENATE],8.3
27,O=S(=O)(O)OOS(=O)(=O)O [SODIUM PERSULFATE],4.5
28,[Cl-].[Na+] [SODIUM CHLORIDE],9
